Reference: PMC12888861, “Antibacterial activity of enmetazobactam against Acinetobacter spp.: a molecular dissection of mechanism of action and resistance determinants” (Antimicrobial Agents and Chemotherapy, 2025)

Tested on: carbapenem-resistant A. baumannii (CRAB) isolates (n = 67)
Test: MIC, broth microdilution (EUCAST), carbapenem-resistant A. baumannii isolates
Assay type: cell-based, Acinetobacter baumannii
Details: for MIC: Acinetobacter baumannii
Summary of the method: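 Broth microdilution per EUCAST v.15 guidelines on clinical Acinetobacter isolates from a Spanish 2020 multicenter collection; enmetazobactam also tested alone. A. baumannii ATCC 19606 served as reference strain, in duplicate assays.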

[1] = CHDLs-producing A. baumannii isolates (n = 67), durlobactam series, DUR fixed 4 mg/L in combinations

SMILES: C[n+]1ccn(C[C@@]2(C)[C@H](C(=O)[O-])N3C(=O)C[C@H]3S2(=O)=O)n1 [enmetazobactam]
- MIC (isolate Ab83, ST 25, ADC-5, OXA-64, OXA-23, ETZ fixed 8 mg/L in combinations): 64 µg/mL
- MIC (isolate Ab109, ST 1, ADC-75, OXA-69, OXA-23, DUR fixed at 4 mg/L in combinations): 32 µg/mL
- MIC (isolate Ab109, ST 1, ADC-75, OXA-69, OXA-23, ETZ fixed 8 mg/L in combinations): 32 µg/mL
- MIC (isolate Ab133, ST 2, ADC-30, OXA-66, OXA-58, TEM-12, DUR fixed at 4 mg/L in combinations): 8 µg/mL
- MIC (isolate Ab133, ST 2, ADC-30, OXA-66, OXA-58, TEM-12, ETZ fixed 8 mg/L in combinations): 8 µg/mL
- MIC (isolate Ab134, ST 2, ADC-30, OXA-66, OXA-58, TEM-12, DUR fixed at 4 mg/L in combinations): 8 µg/mL
- MIC (isolate Ab134, ST 2, ADC-30, OXA-66, OXA-58, TEM-12, ETZ fixed 8 mg/L in combinations): 8 µg/mL
- MIC (isolate Ab137, ST 85, ADC-2, OXA-94, OXA-23, DUR fixed at 4 mg/L in combinations): 64 µg/mL
- MIC (isolate Ab137, ST 85, ADC-2, OXA-94, OXA-23, ETZ fixed 8 mg/L in combinations): 64 µg/mL
- MIC (isolate Ab138, ST 745, ADC-30, OXA-66, OXA-58, DUR fixed at 4 mg/L in combinations): 64 µg/mL
- MIC (isolate Ab138, ST 745, ADC-30, OXA-66, OXA-58, ETZ fixed 8 mg/L in combinations): 64 µg/mL
- MIC (isolate Ab140, ST 85, ADC-2, OXA-94, OXA-23, DUR fixed at 4 mg/L in combinations): 64 µg/mL
- MIC (isolate Ab140, ST 85, ADC-2, OXA-94, OXA-23, ETZ fixed 8 mg/L in combinations): 64 µg/mL
- MIC (isolate Ab141, ST 745, ADC-30, OXA-66, OXA-58, DUR fixed at 4 mg/L in combinations): 8 µg/mL
- MIC (isolate Ab141, ST 745, ADC-30, OXA-66, OXA-58, ETZ fixed 8 mg/L in combinations): 8 µg/mL
- MIC (isolate Ab144, ST 745, ADC-30, OXA-66, OXA-58, DUR fixed at 4 mg/L in combinations): 32 µg/mL
- MIC (isolate Ab144, ST 745, ADC-30, OXA-66, OXA-58, ETZ fixed 8 mg/L in combinations): 32 µg/mL
- MIC (isolate Ab169, ST 2, ADC-30, OXA-66, OXA-23, DUR fixed at 4 mg/L in combinations): 32 µg/mL
- MIC (isolate Ab169, ST 2, ADC-30, OXA-66, OXA-23, ETZ fixed 8 mg/L in combinations): 64 µg/mL
- MIC (isolate Ab171, ST 2, ADC-30, OXA-66, OXA-23, DUR fixed at 4 mg/L in combinations): 32 µg/mL
- MIC (isolate Ab171, ST 2, ADC-30, OXA-66, OXA-23, ETZ fixed 8 mg/L in combinations): 64 µg/mL
- MIC (isolate Ab173, ST 2, ISAba1-ADC-30, OXA-66, OXA-23, DUR fixed at 4 mg/L in combinations): 64 µg/mL
- MIC (isolate Ab173, ST 2, ISAba1-ADC-30, OXA-66, OXA-23, ETZ fixed 8 mg/L in combinations): 64 µg/mL
- MIC (isolate Ab174, ST 2, ADC-30, OXA-66, OXA-23, DUR fixed at 4 mg/L in combinations): 64 µg/mL
- MIC (isolate Ab174, ST 2, ADC-30, OXA-66, OXA-23, ETZ fixed 8 mg/L in combinations): 64 µg/mL
- MIC (isolate Ab179, ST 2, ADC-30, OXA-66, OXA-23, DUR fixed at 4 mg/L in combinations): 64 µg/mL
- MIC (isolate Ab179, ST 2, ADC-30, OXA-66, OXA-23, ETZ fixed 8 mg/L in combinations): 64 µg/mL
- MIC (isolate Ab180, ST 2, ADC-30, OXA-66, OXA-24/40, DUR fixed at 4 mg/L in combinations): 32 µg/mL
- MIC (isolate Ab180, ST 2, ADC-30, OXA-66, OXA-24/40, ETZ fixed 8 mg/L in combinations): 32 µg/mL
- MIC (isolate Ab181, ST 2, ADC-30, OXA-66, OXA-23, DUR fixed at 4 mg/L in combinations): 32 µg/mL
- MIC (isolate Ab181, ST 2, ADC-30, OXA-66, OXA-23, ETZ fixed 8 mg/L in combinations): 32 µg/mL
- MIC (isolate Ab182, ST 2, ADC-30, OXA-66, OXA-23, DUR fixed at 4 mg/L in combinations): 16 µg/mL
- MIC (isolate Ab182, ST 2, ADC-30, OXA-66, OXA-23, ETZ fixed 8 mg/L in combinations): 16 µg/mL
- MIC (isolate Ab183, ST 2, ADC-30, OXA-66, OXA-23, DUR fixed at 4 mg/L in combinations): 32 µg/mL
- MIC (isolate Ab183, ST 2, ADC-30, OXA-66, OXA-23, ETZ fixed 8 mg/L in combinations): 32 µg/mL
- MIC (isolate Ab184, ST 2, ADC-30, OXA-66, OXA-23, DUR fixed at 4 mg/L in combinations): 32 µg/mL
- MIC (isolate Ab184, ST 2, ADC-30, OXA-66, OXA-23, ETZ fixed 8 mg/L in combinations): 32 µg/mL
- MIC (isolate Ab186, ST 2, ADC-30, OXA-66, OXA-23, DUR fixed at 4 mg/L in combinations): 32 µg/mL
- MIC (isolate Ab186, ST 2, ADC-30, OXA-66, OXA-23, ETZ fixed 8 mg/L in combinations): 32 µg/mL
- MIC (isolate Ab191, ST 2, ADC-30, OXA-66, OXA-23, DUR fixed at 4 mg/L in combinations): 64 µg/mL
- MIC (isolate Ab191, ST 2, ADC-30, OXA-66, OXA-23, ETZ fixed 8 mg/L in combinations): 64 µg/mL
- MIC (isolate Ab192, ST 2, ADC-30, OXA-66, OXA-23, DUR fixed at 4 mg/L in combinations): 32 µg/mL
- MIC (isolate Ab192, ST 2, ADC-30, OXA-66, OXA-23, ETZ fixed 8 mg/L in combinations): 64 µg/mL
- MIC (isolate Ab194, ST 2, ADC-30, OXA-66, OXA-23, DUR fixed at 4 mg/L in combinations): 64 µg/mL
- MIC (isolate Ab194, ST 2, ADC-30, OXA-66, OXA-23, ETZ fixed 8 mg/L in combinations): 64 µg/mL
- MIC (isolate Ab199, ST 2, ADC-30, OXA-66, OXA-23, DUR fixed at 4 mg/L in combinations): 32 µg/mL
- MIC (isolate Ab199, ST 2, ADC-30, OXA-66, OXA-23, ETZ fixed 8 mg/L in combinations): 32 µg/mL
- MIC (isolate Ab201, ST 2, ADC-30, OXA-66, OXA-23, DUR fixed at 4 mg/L in combinations): 64 µg/mL
- MIC (isolate Ab201, ST 2, ADC-30, OXA-66, OXA-23, ETZ fixed 8 mg/L in combinations): 64 µg/mL
- MIC (isolate Ab204, ST 2, ADC-30, OXA-66, OXA-23, DUR fixed at 4 mg/L in combinations): 32 µg/mL
- MIC (isolate Ab204, ST 2, ADC-30, OXA-66, OXA-23, ETZ fixed 8 mg/L in combinations): 32 µg/mL
- MIC50 [1]: 64 µg/mL
- MIC90 [1]: 64 µg/mL
- MIC distribution 0.12 (cumulative % of CHDLs-producing A. baumannii isolates (n = 67) at MIC 0.12 mg/L, DUR fixed 4 mg/L in combinations): 0.0%
- MIC distribution 0.25 (cumulative % of CHDLs-producing A. baumannii isolates (n = 67) at MIC 0.25 mg/L, DUR fixed 4 mg/L in combinations): 0.0%
- MIC distribution 0.5 (cumulative % of CHDLs-producing A. baumannii isolates (n = 67) at MIC 0.5 mg/L, DUR fixed 4 mg/L in combinations): 0.0%
- MIC distribution 1 (cumulative % of CHDLs-producing A. baumannii isolates (n = 67) at MIC 1 mg/L, DUR fixed 4 mg/L in combinations): 0.0%
- MIC distribution 2 (cumulative % of CHDLs-producing A. baumannii isolates (n = 67) at MIC 2 mg/L, DUR fixed 4 mg/L in combinations): 0.0%
- MIC distribution 4 (cumulative % of CHDLs-producing A. baumannii isolates (n = 67) at MIC 4 mg/L, DUR fixed 4 mg/L in combinations): 10.4%
- MIC distribution 8 (cumulative % of CHDLs-producing A. baumannii isolates (n = 67) at MIC 8 mg/L, DUR fixed 4 mg/L in combinations): 22.4%
- MIC distribution 16 (cumulative % of CHDLs-producing A. baumannii isolates (n = 67) at MIC 16 mg/L, DUR fixed 4 mg/L in combinations): 25.4%
- MIC distribution 32 (cumulative % of CHDLs-producing A. baumannii isolates (n = 67) at MIC 32 mg/L, DUR fixed 4 mg/L in combinations): 46.3%
- MIC distribution ≤0.06 (cumulative % of CHDLs-producing A. baumannii isolates (n = 67) at MIC ≤0.06 mg/L, DUR fixed 4 mg/L in combinations): 0.0%
- MIC distribution ≥64 (cumulative % of CHDLs-producing A. baumannii isolates (n = 67) at MIC ≥64 mg/L, DUR fixed 4 mg/L in combinations): 100%
- MIC distribution 0.12 (cumulative share of CRAB isolates (n = 67) at MIC 0.12 mg/L, ETZ fixed 8 mg/L in combinations): 0
- MIC distribution 0.25 (cumulative share of CRAB isolates (n = 67) at MIC 0.25 mg/L, ETZ fixed 8 mg/L in combinations): 0
- MIC distribution 0.5 (cumulative share of CRAB isolates (n = 67) at MIC 0.5 mg/L, ETZ fixed 8 mg/L in combinations): 0
- MIC distribution 1 (cumulative share of CRAB isolates (n = 67) at MIC 1 mg/L, ETZ fixed 8 mg/L in combinations): 0
- MIC distribution 2 (cumulative share of CRAB isolates (n = 67) at MIC 2 mg/L, ETZ fixed 8 mg/L in combinations): 0
- MIC distribution 4 (cumulative share of CRAB isolates (n = 67) at MIC 4 mg/L, ETZ fixed 8 mg/L in combinations): 10.4
- MIC distribution 8 (cumulative share of CRAB isolates (n = 67) at MIC 8 mg/L, ETZ fixed 8 mg/L in combinations): 19.4
- MIC distribution 16 (cumulative share of CRAB isolates (n = 67) at MIC 16 mg/L, ETZ fixed 8 mg/L in combinations): 25.4
- MIC distribution 32 (cumulative share of CRAB isolates (n = 67) at MIC 32 mg/L, ETZ fixed 8 mg/L in combinations): 41.8
- MIC distribution 64 (cumulative share of CRAB isolates (n = 67) at MIC 64 mg/L, ETZ fixed 8 mg/L in combinations): 100
- MIC distribution ≤0.06 (cumulative share of CRAB isolates (n = 67) at MIC ≤0.06 mg/L, ETZ fixed 8 mg/L in combinations): 0
